Values joined by “and” are separate entries in the source; they are usually repeats but may differ in a detail not shown here. Identical values can stand only once.
Assays:
[1] = biological target: human Cereblon WT GST-tagged protein (Homo sapiens (Human), UniProt Q96SW2); assay: CRBN-binding affinity, HTRF (CEREBLON BINDING kit)
How it was run: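 HTRF competition readout: compounds compete with a thalidomide-Re conjugate for GST-tagged wild-type human CRBN detected via Eu-labelled anti-GST antibody. Inhibition rate derived relative to protein-free blank wells.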

IKZF1 protein = IKZF1 protein (Homo sapiens (Human), UniProt Q13422+Q96SW2); assay: Western-blot assay of substrate protein degradation in hPBMC, IKZF1; format: cell-based; settings: hPBMC cells, compound 500 nM, 24 hours, Western blot
IKZF3 protein = IKZF3 protein (Homo sapiens (Human), UniProt Q96SW2+Q9UKT9); assay: Western-blot assay of substrate protein degradation in hPBMC, IKZF3; format: cell-based; settings: hPBMC cells, compound 500 nM, 24 hours, Western blot
GSPT1 protein = GSPT1 protein (Homo sapiens (Human), UniProt P15170+Q96SW2); assay: Western-blot assay of substrate protein degradation in hPBMC, GSPT1; format: cell-based; settings: hPBMC cells, compound 500 nM, 24 hours, Western blot
GSPT1 protein, sequence (P15170 whole entry): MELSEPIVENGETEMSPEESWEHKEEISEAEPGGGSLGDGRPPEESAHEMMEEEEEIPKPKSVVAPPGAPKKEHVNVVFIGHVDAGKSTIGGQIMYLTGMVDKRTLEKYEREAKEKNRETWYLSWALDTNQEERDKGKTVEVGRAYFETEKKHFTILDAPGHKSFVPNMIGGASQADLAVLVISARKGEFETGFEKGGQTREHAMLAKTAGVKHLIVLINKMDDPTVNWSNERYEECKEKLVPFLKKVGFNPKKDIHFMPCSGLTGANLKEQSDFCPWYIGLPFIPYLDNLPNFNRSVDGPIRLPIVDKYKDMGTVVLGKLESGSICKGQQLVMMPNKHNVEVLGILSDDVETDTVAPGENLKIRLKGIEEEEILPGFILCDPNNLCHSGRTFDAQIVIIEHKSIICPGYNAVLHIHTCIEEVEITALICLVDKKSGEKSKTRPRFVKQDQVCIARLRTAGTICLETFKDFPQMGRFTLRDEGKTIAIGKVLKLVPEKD
GSPT1 protein, sequence (Q96SW2 whole entry): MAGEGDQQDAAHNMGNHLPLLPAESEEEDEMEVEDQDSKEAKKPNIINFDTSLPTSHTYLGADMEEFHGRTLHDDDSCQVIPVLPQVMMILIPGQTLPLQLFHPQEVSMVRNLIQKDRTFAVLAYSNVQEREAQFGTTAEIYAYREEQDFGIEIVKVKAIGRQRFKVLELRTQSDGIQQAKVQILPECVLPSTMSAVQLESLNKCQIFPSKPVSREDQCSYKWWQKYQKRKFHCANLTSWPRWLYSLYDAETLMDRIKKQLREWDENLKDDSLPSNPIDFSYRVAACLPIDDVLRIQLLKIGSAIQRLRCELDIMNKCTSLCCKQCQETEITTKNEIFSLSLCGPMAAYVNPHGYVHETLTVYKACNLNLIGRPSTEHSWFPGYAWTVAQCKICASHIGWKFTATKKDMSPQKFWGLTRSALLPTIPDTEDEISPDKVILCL
GSPT1 protein, sequence (Q16531 whole entry partner): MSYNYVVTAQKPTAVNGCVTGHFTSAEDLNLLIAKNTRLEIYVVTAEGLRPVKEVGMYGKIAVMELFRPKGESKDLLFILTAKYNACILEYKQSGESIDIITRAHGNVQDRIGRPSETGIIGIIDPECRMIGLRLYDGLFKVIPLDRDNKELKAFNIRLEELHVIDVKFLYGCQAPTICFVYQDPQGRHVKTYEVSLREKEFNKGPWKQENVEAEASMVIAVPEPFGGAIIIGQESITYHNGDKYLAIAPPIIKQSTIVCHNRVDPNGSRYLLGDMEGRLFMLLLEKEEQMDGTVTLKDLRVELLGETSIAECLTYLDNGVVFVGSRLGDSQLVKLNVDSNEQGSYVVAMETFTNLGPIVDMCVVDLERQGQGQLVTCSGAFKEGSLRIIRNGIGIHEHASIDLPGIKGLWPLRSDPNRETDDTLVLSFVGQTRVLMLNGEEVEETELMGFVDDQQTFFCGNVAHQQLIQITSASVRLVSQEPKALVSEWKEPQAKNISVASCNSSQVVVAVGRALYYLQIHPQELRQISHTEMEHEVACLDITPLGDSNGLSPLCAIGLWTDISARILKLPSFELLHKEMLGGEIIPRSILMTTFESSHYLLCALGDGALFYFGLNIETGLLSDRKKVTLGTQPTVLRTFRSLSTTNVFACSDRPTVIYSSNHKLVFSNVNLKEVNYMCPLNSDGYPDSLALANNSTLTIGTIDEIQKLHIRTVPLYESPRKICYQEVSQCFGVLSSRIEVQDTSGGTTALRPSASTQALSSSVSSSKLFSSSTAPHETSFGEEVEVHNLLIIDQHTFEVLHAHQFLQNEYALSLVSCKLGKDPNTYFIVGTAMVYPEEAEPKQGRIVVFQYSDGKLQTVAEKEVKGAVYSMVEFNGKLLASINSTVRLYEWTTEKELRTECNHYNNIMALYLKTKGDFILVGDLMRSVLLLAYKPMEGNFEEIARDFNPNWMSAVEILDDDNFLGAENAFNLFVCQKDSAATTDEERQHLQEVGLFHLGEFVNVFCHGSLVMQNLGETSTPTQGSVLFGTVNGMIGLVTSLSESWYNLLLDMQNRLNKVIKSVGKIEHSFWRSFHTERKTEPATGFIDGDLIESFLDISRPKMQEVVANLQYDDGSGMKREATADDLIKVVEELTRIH

IKZF3 protein, sequence (Q9UKT9 whole entry): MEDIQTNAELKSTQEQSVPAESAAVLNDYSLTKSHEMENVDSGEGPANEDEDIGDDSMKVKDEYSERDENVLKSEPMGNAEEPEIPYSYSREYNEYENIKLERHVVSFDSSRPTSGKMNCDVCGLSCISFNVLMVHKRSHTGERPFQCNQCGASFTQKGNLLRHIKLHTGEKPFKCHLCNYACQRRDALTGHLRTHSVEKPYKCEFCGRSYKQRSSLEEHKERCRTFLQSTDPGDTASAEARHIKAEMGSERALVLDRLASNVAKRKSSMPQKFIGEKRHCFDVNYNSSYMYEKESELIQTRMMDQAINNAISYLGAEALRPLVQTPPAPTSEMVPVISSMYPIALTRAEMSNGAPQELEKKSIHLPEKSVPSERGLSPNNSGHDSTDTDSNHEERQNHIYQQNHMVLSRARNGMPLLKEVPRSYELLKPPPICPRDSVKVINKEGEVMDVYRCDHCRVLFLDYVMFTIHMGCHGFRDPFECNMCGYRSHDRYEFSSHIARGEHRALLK
IKZF3 protein, sequence (Q96SW2 whole entry): as the sequence (Q96SW2 whole entry) above
IKZF3 protein, sequence (Q16531 whole entry partner): as the sequence (Q16531 whole entry partner) above
human Cereblon WT GST-tagged protein, sequence (Q96SW2 whole entry): as the sequence (Q96SW2 whole entry) above
IKZF1 protein, sequence (Q13422 whole entry): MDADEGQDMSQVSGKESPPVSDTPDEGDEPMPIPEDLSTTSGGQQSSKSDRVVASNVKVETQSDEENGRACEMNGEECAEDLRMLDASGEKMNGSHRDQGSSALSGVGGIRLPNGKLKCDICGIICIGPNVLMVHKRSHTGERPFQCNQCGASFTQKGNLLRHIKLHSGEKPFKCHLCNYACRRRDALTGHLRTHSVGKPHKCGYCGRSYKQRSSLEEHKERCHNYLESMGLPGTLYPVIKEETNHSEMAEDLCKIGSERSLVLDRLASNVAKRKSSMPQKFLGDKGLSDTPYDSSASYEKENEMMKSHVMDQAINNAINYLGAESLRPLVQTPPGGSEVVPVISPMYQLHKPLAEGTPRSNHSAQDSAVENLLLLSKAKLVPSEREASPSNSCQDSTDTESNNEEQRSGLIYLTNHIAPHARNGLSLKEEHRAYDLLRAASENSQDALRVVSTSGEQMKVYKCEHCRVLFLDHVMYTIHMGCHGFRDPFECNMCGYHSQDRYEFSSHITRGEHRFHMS
IKZF1 protein, sequence (Q96SW2 whole entry): as the sequence (Q96SW2 whole entry) above
IKZF1 protein, sequence (Q16531 whole entry partner): as the sequence (Q16531 whole entry partner) above

Row | Compound | IC50 [1] | residual substrate protein level, IKZF1 (IKZF1 protein) | residual substrate protein level, IKZF3 (IKZF3 protein) | residual substrate protein level, GSPT1 (GSPT1 protein)
1 | CC1(C)CCC(CN2CC3CCC2CN3Cc2ccc3c(c2)CN(C2CCC(=O)NC2=O)C3=O)=C(c2ccc(F)cc2)C1 (stereo not drawn) [GT-05512, 3-(5-((5-((4′-fluoro-5,5-dimethyl-3,4,5,6-tetrahydro-[1,1′-biphenyl]-2-yl)methyl)-2,5-diazabicyclo[2.2.2]octan-2-yl)methyl)-1-oxoisoindolin-2-yl)piperidine-2,6-dione] | 0.57 µM | B (B represents a residual substrate protein level of >50%) | B (B represents a residual substrate protein level of >50%) | A (A represents a residual substrate protein level of <50%)
2 | CC1(C)CCC(C(=O)N2C3CC2CN(Cc2ccc4c(c2)CN(C2CCC(=O)NC2=O)C4=O)C3)=C(c2ccc(F)cc2)C1 (stereo not drawn) [GT-05515, 3-(5-((6-(4′-fluoro-5,5-dimethyl-3,4,5,6-tetrahydro-[1,1′-biphenyl]-2-carbonyl)-3,6-diazabicyclo[3.1.1]heptan-3-yl)methyl)-1-oxoisoindolin-2-yl)piperidine-2,6-dione] | 1.01 µM | B (B represents a residual substrate protein level of >50%) | B (B represents a residual substrate protein level of >50%) | A (A represents a residual substrate protein level of <50%)
3 | O=C1CCC(N2Cc3cc(CN4CCN(Cc5ccccc5-c5ccc(F)cc5)CC4)cc(F)c3C2=O)C(=O)N1 (stereo not drawn) [GT-05604, 3-(7-fluoro-5-((4-((4′-fluoro-[1,1′-biphenyl]-2-yl)methyl)piperazin-1-yl)methyl)-1-oxoisoindolin-2-yl)piperidine-2,6-dione] | 0.72 µM | B (B represents a residual substrate protein level of >50%) | B (B represents a residual substrate protein level of >50%) | A (A represents a residual substrate protein level of <50%)
4 | O=C1CCC(N2Cc3cc(CN4C5CC4CN(Cc4ccccc4-c4ccc(Cl)cc4)C5)ccc3C2=O)C(=O)N1 (stereo not drawn) [GT-05607, 3-(5-((3-((4′-chloro-[1,1′-biphenyl]-2-yl)methyl)-3,6-diazabicyclo[3.1.1]heptan-6-yl)methyl)-1-oxoisoindolin-2-yl)piperidine-2,6-dione] | 1.15 µM and 0.88 µM | B (B represents a residual substrate protein level of >50%) | B (B represents a residual substrate protein level of >50%) | A (A represents a residual substrate protein level of <50%)
5 | O=C1CCC(N2Cc3cc(CN4CC5(CCN(Cc6ccccc6-c6ccc(Cl)cc6)CC5)C4)ccc3C2=O)C(=O)N1 (stereo not drawn) [GT-05612, 3-(5-((7-((4′-chloro-[1,1′-biphenyl]-2-yl)methyl)-2,7-diazaspiro[3.5]nonan-2-yl)methyl)-1-oxoisoindolin-2-yl)piperidine-2,6-dione] | 0.65 µM | A (A represents a residual substrate protein level of <50%) | A (A represents a residual substrate protein level of <50%) | B (B represents a residual substrate protein level of >50%)
6 | O=C1CCC(N2Cc3cc(CN4CC5CN(Cc6ccccc6-c6ccc(Cl)cc6)CC5C4)ccc3C2=O)C(=O)N1 (stereo not drawn) [GT-05613, 3-(5-((5-((4′-chloro-[1,1′-biphenyl]-2-yl)methyl)hexahydropyrrolo[3,4-c]pyrrol-2(1H)-yl)methyl)-1-oxoisoindolin-2-yl)piperidine-2,6-dione] | 0.59 µM | B (B represents a residual substrate protein level of >50%) | A (A represents a residual substrate protein level of <50%) | B (B represents a residual substrate protein level of >50%)
7 | O=C1CCC(N2Cc3cc(C(=O)N4CC5CCC(C4)N5Cc4ccccc4-c4ccc(Cl)cc4)ccc3C2=O)C(=O)N1 (stereo not drawn) [GT-05621, 3-(5-(8-((4′-chloro-[1,1′-biphenyl]-2-yl)methyl)-3,8-diazabicyclo[3.2.1]octane-3-carbonyl)-1-oxoisoindolin-2-yl)piperidine-2,6-dione] | 1.1 µM | B (B represents a residual substrate protein level of >50%) | B (B represents a residual substrate protein level of >50%) | A (A represents a residual substrate protein level of <50%)
8 | O=C1CCC(N2Cc3cc(C(=O)N4CC5CCC4CN5Cc4ccccc4-c4ccc(Cl)cc4)ccc3C2=O)C(=O)N1 (stereo not drawn) [GT-05622, 3-(5-(5-((4′-chloro-[1,1′-biphenyl]-2-yl)methyl)-2,5-diazabicyclo[2.2.2]octane-2-carbonyl)-1-oxoisoindolin-2-yl)piperidine-2,6-dione] | 0.91 µM | B (B represents a residual substrate protein level of >50%) | B (B represents a residual substrate protein level of >50%) | A (A represents a residual substrate protein level of <50%)
9 | O=C1CCC(N2Cc3cc(CN4C5CC4CN(C(=O)c4ccccc4-c4ccc(Cl)cc4)C5)ccc3C2=O)C(=O)N1 (stereo not drawn) [GT-05665, 3-(5-((3-(4′-chloro-[1,1′-biphenyl]-2-carbonyl)-3,6-diazabicyclo[3.1.1]heptan-6-yl)methyl)-1-oxoisoindolin-2-yl)piperidine-2,6-dione] | 0.6 µM | B (B represents a residual substrate protein level of >50%) | B (B represents a residual substrate protein level of >50%) | A (A represents a residual substrate protein level of <50%)

The next lines start with results.

Row | IC50 [1] | Compound | residual substrate protein level, IKZF1 (IKZF1 protein) | residual substrate protein level, IKZF3 (IKZF3 protein) | residual substrate protein level, GSPT1 (GSPT1 protein)
10 | 0.59 µM | O=C1CCC(N2Cc3cc(CN4CCCN(C(=O)c5ccccc5-c5ccc(Cl)cc5)CC4)ccc3C2=O)C(=O)N1 (stereo not drawn) [GT-05644, 3-(5-((4-(4′-chloro-[1,1′-biphenyl]-2-carbonyl)-1,4-diazepan-1-yl)methyl)-1-oxoisoindolin-2-yl)piperidine-2,6-dione] | B (B represents a residual substrate protein level of >50%) | B (B represents a residual substrate protein level of >50%) | A (A represents a residual substrate protein level of <50%)
11 | 1.17 µM | CC1(C)CCC(C(=O)N2CCC3(CC2)CN(C(=O)c2ccc4c(c2)CN(C2CCC(=O)NC2=O)C4=O)C3)=C(c2ccc(Cl)cc2)C1 (stereo not drawn) [GT-05657, 3-(5-(7-(4′-chloro-5,5-dimethyl-3,4,5,6-tetrahydro-[1,1′-biphenyl]-2-carbonyl)-2,7-diazaspiro[3.5]nonane-2-carbonyl)-1-oxoisoindolin-2-yl)piperidine-2,6-dione] | B (B represents a residual substrate protein level of >50%) | B (B represents a residual substrate protein level of >50%) | B (B represents a residual substrate protein level of >50%)
12 | 0.74 µM | CC1(C)CCC(C(=O)N2CC3CN(Cc4ccc5c(c4)CN(C4CCC(=O)NC4=O)C5=O)CC3C2)=C(c2ccc(Cl)cc2)C1 (stereo not drawn) [GT-05658, 3-(5-((5-(4′-chloro-5,5-dimethyl-3,4,5,6-tetrahydro-[1,1′-biphenyl]-2-carbonyl)hexahydropyrrolo[3,4-c]pyrrol-2(1H)-yl)methyl)-1-oxoisoindolin-2-yl)piperidine-2,6-dione] | B (B represents a residual substrate protein level of >50%) | A (A represents a residual substrate protein level of <50%) | B (B represents a residual substrate protein level of >50%)
13 | 0.71 µM | CC1(C)CCC(C(=O)N2CC3CCC2CN3Cc2ccc3c(c2)CN(C2CCC(=O)NC2=O)C3=O)=C(c2ccc(Cl)cc2)C1 (stereo not drawn) [GT-05662, 3-(5-((5-(4′-chloro-5,5-dimethyl-3,4,5,6-tetrahydro-[1,1′-biphenyl]-2-carbonyl)-2,5-diazabicyclo[2.2.2]octan-2-yl)methyl)-1-oxoisoindolin-2-yl)piperidine-2,6-dione] | B (B represents a residual substrate protein level of >50%) | A (A represents a residual substrate protein level of <50%) | B (B represents a residual substrate protein level of >50%)
14 | 0.62 µM | CC1(C)CCC(CN2CC3(C2)CN(Cc2ccc4c(c2)CN(C2CCC(=O)NC2=O)C4=O)C3)=C(c2ccc(F)cc2)C1 (stereo not drawn) [GT-05670, 3-(5-((6-((4′-fluoro-5,5-dimethyl-3,4,5,6-tetrahydro-[1,1′-biphenyl]-2-yl)methyl)-2,6-diazaspiro[3.3]heptan-2-yl)methyl)-1-oxoisoindolin-2-yl)piperidine-2,6-dione] | A (A represents a residual substrate protein level of <50%) | A (A represents a residual substrate protein level of <50%) | A (A represents a residual substrate protein level of <50%)
15 | 0.98 µM | CC1(C)CCC(C(=O)N2CCCN(Cc3ccc4c(c3)CN(C3CCC(=O)NC3=O)C4=O)CC2)=C(c2ccc(Cl)cc2)C1 (stereo not drawn) [GT-05680, 3-(5-((4-(4′-chloro-5,5-dimethyl-3,4,5,6-tetrahydro-[1,1′-biphenyl]-2-carbonyl)-1,4-diazepan-1-yl)methyl)-1-oxoisoindolin-2-yl)piperidine-2,6-dione] | B (B represents a residual substrate protein level of >50%) | A (A represents a residual substrate protein level of <50%) | B (B represents a residual substrate protein level of >50%)

Reference: patent publication US20260028326A1, “COMPOUND BASED ON ISOINDOLINE-SUBSTITUTED GLUTARIMIDE BACKBONE AND USE THEREOF” (GLUETACS THERAPEUTICS (SHANGHAI) CO., LTD., priority 2022, published 2026)
